According to patent US4707495A, “Peptic ulcer treatment method” (Ortho Pharmaceutical, priority 1985, dated 1987):

How the values were obtained:
submucosal lesions = assay: Cytoprotection: inhibition of submucosal gastric lesions induced by oral 50 percent ethanol; assay type: in vivo, Male Charles River rats; conditions: for Percent Inhibition of Submucosal Lesions, Oral: 2 percent aqueous ethanol vehicle; for Percent Inhibition of Submucosal Lesions, Topical: topical to shaved skin, 25 percent ethanolic water; for cytoprotection when applied topically (in words): topical, at the same unit dose as effective orally
Method: Male Charles River rats weighing about 200 g each were fasted overnight, but were allowed water ad libitum. Rats used for the topical administration of this invention were shaved on their dorsal sides one day prior to being used as host mammals.
Compositions containing the active ingredient were prepared for oral administration by dissolving a prostaglandin in a 2 percent aqueous ethanolic solution that was administered in a dose volume of 0.2 milliliters per kilogram (ml/kg) of body weight at the unit dosages shown in Table 1 hereinafter. […] A fixed concentration for each dose was applied to the skin in a volume of 0.2 ml per rat.
Gastric lesions were induced by oral administration of 1.0 ml of a 50 percent ethanolic water solution that was administered one hour after administration of each of the active ingredients. The rats were sacrificed by asphyxiation one hour after gastric lesion induction using carbon dioxide. The rat stomachs were then removed, inflated with water, opened along the greater curvature, and were laid out on a flat surface. The presence of mucosal bleeding was noted, the mucosal layers were wiped, and the presence or absence of hemorrhagic sites was recorded.
The incidences of lesions compared to controls were statistically analyzed by either the method of Chi-square using Yate's correction or Fisher's Exact Probability Test.

gastric acid secretion [1] = assay: Inhibition of gastric acid secretion (pylorus ligation); assay type: in vivo, Male Charles River CD rats; conditions: for Percent Inhibition of Acid, Intraduodenal / Percent Inhibition of Acid, Topical: 4 h after pylorus ligation; for Percent Inhibition of Acid, Intraduodenal: 2 percent ethanolic water; for Percent Inhibition of Acid, Topical: topical to shaved skin, 25 percent ethanolic water
Method: Male Charles River CD rats weighing about 180 g each were shaved on their dorsal sides and derpived of food for a time period of 18 hours prior to use. Water was permitted ad libitim during that time, but was removed during the times at which the rats were studied as host mammals.
Compositions containing the active ingredient were administered intraduodenally at 1 ml/kg or were applied to directly contact the shaved skin at 0.2 ml/animal at the time the pylorus of each animal was ligated.
The animals were sacrificed by asphyxiation four hours after pylorus ligation using carbon dioxide. The gastric contents were collected in graduated centrifuge tubes that were centrifuged. The centrifugally separated supernatents were then analyzed for volume and acidity. Acid concentration (secretion) was determined by electrometric titration of a 1 ml aliquot of the recovered gastric juice against 0.1N NaOH to a pH value of 7.4.
Treated groups were compared to the control and statistical differences were declared by the method of least significant differences.
(treatment-control)/control×100%

gastrointestinal mucosa = conditions: in vivo; cited from earlier work
gastric acid secretion [2] = conditions: given orally to rats, at any dose; cited from earlier work
[3] = tested on: indomethacin-induced gastric lesions; conditions: oral administration; cited from earlier work
gastric acid secretion [4] = conditions: laboratory animals and man; cited from earlier work
[5] = 5 μg/kg (estimate based on 200 g rat)
[6] = 25 μg/kg, lesions by 50 percent ethanol 1 h after agent
[7] = 25 μg/kg (estimate based on 200 g rat)

Compound: CCCCC(C)(C)[C@H](O)/C=C/[C@H]1[C@H](O)CC(=O)[C@@H]1C/C=C\CCCC(=O)O [dmPGE2, (5Z,11α,13E,15R)-11,15-dihydroxy-16,16-dimethyl-9-oxo-prosta-5,13-1-o ic acid acid]
- Percent Inhibition of Submucosal Lesions, Oral (submucosal lesions; 5 μg/kg): 100%
- Percent Inhibition of Submucosal Lesions, Topical (submucosal lesions; [5]): 100%
- cytoprotection when applied topically (in words) (submucosal lesions): effective at the same oral dose when applied externally
- Percent Inhibition of Acid, Intraduodenal (gastric acid secretion [1]; 1.0 mg/kg): 29%
- Percent Inhibition of Acid, Topical (gastric acid secretion [1]; 1.0 mg/kg): 26%

Compound: CN/C(=N/CCSCc1nc[nH]c1C)NC#N [cimetidine]
- cytoprotective activity (gastrointestinal mucosa): not cytoprotective in the models employed

Compound: CCCCC(C)(O)C/C=C/[C@H]1[C@H](O)CC(=O)[C@@H]1CCCCCCC(=O)OC (mixture of isomers) [Misoprostol, (±)(11α,13E)-11,16-dihydroxy-16-methyl-9-oxo-prost-13-en-1-oic acid methyl ester]
- Percent Inhibition of Submucosal Lesions, Oral (submucosal lesions; 100 μg/kg): 87%
- Percent Inhibition of Submucosal Lesions, Topical (submucosal lesions; 100 μg/kg (estimate based on 200 g rat)): 75%
- cytoprotection when applied topically (in words) (submucosal lesions): effective at the same oral dose when applied externally
- Percent Inhibition of Acid, Intraduodenal (gastric acid secretion [1]; 8.0 mg/kg): 38%
- Percent Inhibition of Acid, Topical (gastric acid secretion [1]; 8.0 mg/kg): 43%

Compound: CCCCC[C@@](C)(O)/C=C/[C@@H]1[C@@H](C/C=C\CCCC(=O)O)[C@H](O)C[C@H]1O [15(R)-15 methyl PGF2β]
- antisecretory activity (gastric acid secretion [2]): not antisecretory at any dose when given orally to rats
- cytoprotective activity (gastrointestinal mucosa): cytoprotective

Compound: CCCCC(C)(O)C/C=C/[C@H]1[C@H](O)CC(=O)[C@@H]1CCCCCCCO (stereo partly drawn) [Rioprostil, (11α,13E)-1,11,16-trihydroxy-16-methyl-prost-13-en-9-one]
- Percent Inhibition of Submucosal Lesions, Oral (submucosal lesions; [6]): 87%
- Percent Inhibition of Submucosal Lesions, Topical (submucosal lesions; [7]): 75%
- cytoprotection when applied topically (in words) (submucosal lesions): effective at the same oral dose when applied externally
- Percent Inhibition of Acid, Intraduodenal (gastric acid secretion [1]; 8.0 mg/kg): 35%
- Percent Inhibition of Acid, Topical (gastric acid secretion [1]; 8.0 mg/kg): 37%

Compound: CCCCC(C)(C)[C@H](O)/C=C/[C@H]1C=CC(=O)[C@@H]1C/C=C\CCCC(=O)O [16,16-dimethyl PGA2]
- antisecretory activity (gastric acid secretion [2]): not antisecretory at any dose when given orally to rats
- cytoprotective activity (gastrointestinal mucosa): cytoprotective

Compound: CCCCC[C@H](O)/C=C/[C@H]1C=CC(=O)[C@@H]1CCCCCCC(=O)O [PGA1]
- protection from indomethacin-induced gastric lesions [3]: does not protect rats from indomethacin-induced gastric lesions

Compound: CCCCC[C@H](O)/C=C/[C@H]1[C@H](O)CC(=O)[C@@H]1C/C=C\CCCC(=O)O [PGE2, 9-oxo-11α,15-dihydroxy-5-cis,13-transprostadienoic acid]
- Percent Inhibition of Submucosal Lesions, Oral (submucosal lesions; [6]): 40%
- Percent Inhibition of Submucosal Lesions, Topical (submucosal lesions; [7]): 20%
- cytoprotection when applied topically (in words) (submucosal lesions): ineffective at providing cytoprotection when applied topically
- gastric antisecretory activity (gastric acid secretion [4]): have gastric antisecretory activity in both laboratory animals and man

Compound: CCCCC(C)(C)C(O)/C=C/[C@H]1[C@H](C)CC(=O)[C@@H]1C/C=C\CCCC(=O)O (relative stereo) [Trimoprostil, (±)9-oxo-11α-methyl-15-hydroxy-16,16-dimethyl-5-cis,13-trans-prost adienoic acid]
- Percent Inhibition of Acid, Intraduodenal (gastric acid secretion [1]; 8.0 mg/kg): 38%
- Percent Inhibition of Acid, Topical (gastric acid secretion [1]; 8.0 mg/kg): 9%
- inhibition of gastric acid when applied topically (in words) (gastric acid secretion [1]; topical, at the unit dosage effective intraduodenally): ineffective at significantly inhibiting production of gastric acid, when applied topically

Compound: CCCCC[C@H](O)/C=C/[C@H]1[C@H](O)CC(=O)[C@@H]1CCCCCCC(=O)O [PGE1, 9-oxo-11 alpha,15-dihydroxy-13-trans-prostenoic acid]
- Percent Inhibition of Submucosal Lesions, Oral (submucosal lesions; [6]): 60%
- Percent Inhibition of Submucosal Lesions, Topical (submucosal lesions; [7]): 10%
- cytoprotection when applied topically (in words) (submucosal lesions): ineffective at providing cytoprotection when applied topically
- gastric antisecretory activity (gastric acid secretion [4]): have gastric antisecretory activity in both laboratory animals and man

Compound: COC(=O)CCC=C=CC[C@H]1C(=O)C[C@@H](O)[C@@H]1/C=C/C(O)COc1ccccc1 (relative stereo) [Enprostil, 7-[3-hydroxy-2-(3-hydroxy-4-phenoxy-1-butenyl)-5-oxocyclopentyl]-4,5-heptad ienoic acid methyl ester]
- Percent Inhibition of Submucosal Lesions, Oral (submucosal lesions; 5 μg/kg): 100%
- Percent Inhibition of Submucosal Lesions, Topical (submucosal lesions; [5]): 100%
- cytoprotection when applied topically (in words) (submucosal lesions): effective at the same oral dose when applied externally
- Percent Inhibition of Acid, Intraduodenal (gastric acid secretion [1]; 1.0 mg/kg): 71%
- Percent Inhibition of Acid, Topical (gastric acid secretion [1]; 1.0 mg/kg): 32%

Compound: CCCCC[C@H](O)/C=C/[C@H]1C(=O)C[C@H](O)[C@@H]1C/C=C\CCCC(=O)O [PGD2]
- protection from indomethacin-induced gastric lesions [3]: does not protect rats from indomethacin-induced gastric lesions

Compound: C[N+]1(C)[C@@H]2C[C@@H](OC(=O)[C@H](CO)c3ccccc3)C[C@H]1[C@@H]1O[C@@H]12 (stereo in doubt) [methscopolamine bromide]
- cytoprotective activity (gastrointestinal mucosa): not cytoprotective in the models employed
